Values of other authors in patent US20160271085A1 (priority 2015, published 2016).

Assays:
[1] = tested on: amyotrophic lateral sclerosis; conditions: ALS
[2] = tested on: injured sciatic nerves; conditions: addition of lactate; response did not occur in an atmosphere of nitrogen
[3] = oral, ingested

Structure (SMILES): Nc1nc2ccc(OC(F)(F)F)cc2s1 [Riluzole]
- progress of the disease [1]: appears to slow the progress of the disease

Structure (SMILES): CC(O)C(=O)O (stereo not drawn) [lactate]
- sustained muscle contraction [2]: enhanced

Structure (SMILES): CC(O)C(=O)[O-].[Na+] (stereo not drawn) [sodium lactate, Sodium lactate]
- serum lactate levels [3]: significantly elevate serum lactate levels
